ChEMBL document CHEMBL4266006, “Synthesis and Evaluation of Aryl Quinolines as HIV-1 Integrase Multimerization Inhibitors” (ACS Med Chem Lett, 2018)

The molecules below were run against Human immunodeficiency virus type 1 integrase (Human immunodeficiency virus 1, UniProt Q7ZJM1) (assay: Inhibition of N-terminal His/flag-tagged HIV1 integrase expressed in Escherichia coli BL21 (DE3) incubated for 2.5 hrs by HTRF assay). Conditions: not given; call rule not given here.
Human immunodeficiency virus type 1 integrase, sequence (Q7ZJM1 whole entry): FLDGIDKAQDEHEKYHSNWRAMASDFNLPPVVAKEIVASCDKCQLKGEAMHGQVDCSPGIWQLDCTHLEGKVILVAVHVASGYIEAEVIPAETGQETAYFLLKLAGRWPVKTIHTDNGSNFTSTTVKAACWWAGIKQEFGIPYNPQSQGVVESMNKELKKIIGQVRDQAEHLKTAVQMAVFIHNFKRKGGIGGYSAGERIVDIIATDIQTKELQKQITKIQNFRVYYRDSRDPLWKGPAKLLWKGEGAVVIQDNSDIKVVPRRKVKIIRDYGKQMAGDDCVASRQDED

For `Cc1nc2ccccc2c(-c2cncnc2)c1C(OC(C)(C)C)C(=O)O` (configuration not stated), the EC50 was “Not Active”.
With `Cc1nc2ccccc2c(-c2ccc(-c3ccccc3)cc2)c1C(OC(C)(C)C)C(=O)O` (configuration not stated) the EC50 was “Not Active”.
In the case of `Cc1nc2ccccc2c(-c2cccc(C#N)c2)c1C(OC(C)(C)C)C(=O)O` (configuration not stated), the EC50 is reported as “Not Active”.
For `Cc1nc2ccccc2c(-c2cccs2)c1C(OC(C)(C)C)C(=O)O` (configuration not stated), the EC50 was “Not Active”.
For `Cc1nc2ccccc2c(-c2ccc3c(c2)c2ccccc2n3-c2ccccc2)c1C(OC(C)(C)C)C(=O)O` (configuration not stated), the EC50 was “Not Active”.

Same assay, conditions: read-out: EC50

In order of rising EC50:
1. Cc1nc2ccccc2c(-c2ccc3c(c2)CCCO3)c1C(OC(C)(C)C)C(=O)O (configuration not stated)  27 nM
2. Cc1nc2ccc(Br)cc2c(-c2ccc(Cl)cc2)c1C(OC(C)(C)C)C(=O)O (configuration not stated)  70 nM
3. Cc1nc2ccccc2c(-c2ccc3c(c2)OCCO3)c1C(OC(C)(C)C)C(=O)O (configuration not stated)  80 nM
4. Cc1nc2ccccc2c(-c2ccc(Cl)cc2)c1C(OC(C)(C)C)C(=O)O (configuration not stated)  100 nM
5. COc1ccc(-c2c(C(OC(C)(C)C)C(=O)O)c(C)nc3ccccc23)cc1 (configuration not stated)  230 nM
6. Cc1ccc(-c2c(C(OC(C)(C)C)C(=O)O)c(C)nc3ccccc23)cc1 (configuration not stated)  240 nM
7. Cc1nc2ccccc2c(-c2ccccc2Cl)c1C(OC(C)(C)C)C(=O)O (configuration not stated)  260 nM
8. Cc1nc2ccccc2c(-c2ccc(OC(F)(F)F)cc2)c1C(OC(C)(C)C)C(=O)O (configuration not stated)  350 nM
9. CSc1ccc(-c2c(C(OC(C)(C)C)C(=O)O)c(C)nc3ccccc23)cc1 (configuration not stated)  490 nM
10. Cc1nc2ccccc2c(-c2ccc(F)cc2)c1C(OC(C)(C)C)C(=O)O (configuration not stated)  490 nM
11. Cc1ccccc1-c1c(C(OC(C)(C)C)C(=O)O)c(C)nc2ccccc12 (configuration not stated)  510 nM
12. Cc1nc2ccccc2c(-c2ccccc2F)c1C(OC(C)(C)C)C(=O)O (configuration not stated)  580 nM
13. Cc1nc2ccccc2c(-c2ccc(C(F)(F)F)cc2)c1C(OC(C)(C)C)C(=O)O (configuration not stated)  720 nM
14. Cc1cccc(-c2c(C(OC(C)(C)C)C(=O)O)c(C)nc3ccccc23)c1 (configuration not stated)  950 nM
15. CSc1cccc(-c2c(C(OC(C)(C)C)C(=O)O)c(C)nc3ccccc23)c1 (configuration not stated)  1000 nM
16. Cc1nc2ccccc2c(-c2ccccc2)c1C(OC(C)(C)C)C(=O)O (configuration not stated)  1320 nM
17. COc1cccc(-c2c(C(OC(C)(C)C)C(=O)O)c(C)nc3ccccc23)c1 (configuration not stated)  1380 nM
18. CC(=O)c1ccc(-c2c(C(OC(C)(C)C)C(=O)O)c(C)nc3ccccc23)cc1 (configuration not stated)  1390 nM
19. Cc1nc2ccccc2c(-c2cccc(F)c2)c1C(OC(C)(C)C)C(=O)O (configuration not stated)  2110 nM
20. Cc1nc2ccccc2c(-c2ccoc2)c1C(OC(C)(C)C)C(=O)O (configuration not stated)  2210 nM
21. Cc1nc2ccccc2c(-c2ccc(C#N)cc2)c1C(OC(C)(C)C)C(=O)O (configuration not stated)  2970 nM
22. COc1ccc(-c2c(C(OC(C)(C)C)C(=O)O)c(C)nc3ccccc23)cc1OC (configuration not stated)  3700 nM
23. Cc1nc2ccccc2c(-c2cccc(Cl)c2)c1C(OC(C)(C)C)C(=O)O (configuration not stated)  3790 nM
24. CSc1ccccc1-c1c(C(OC(C)(C)C)C(=O)O)c(C)nc2ccccc12 (configuration not stated)  4510 nM
25. COc1ccccc1-c1c(C(OC(C)(C)C)C(=O)O)c(C)nc2ccccc12 (configuration not stated)  8390 nM
26. CC(=O)Nc1ccc(-c2c(C(OC(C)(C)C)C(=O)O)c(C)nc3ccccc23)cc1 (configuration not stated)  8410 nM
27. Cc1nc2ccccc2c(-c2ccccc2C#N)c1C(OC(C)(C)C)C(=O)O (configuration not stated)  11100 nM
